From patent publication US10611740B2, “Aryl dihydro-2H-benzo[b][1,4]oxazine sulfonamide and related compounds for use as agonists of RORγ and the treatment of disease” (Lycera Corporation, priority 2015, dated 2020)

Molecular target: T1, RORγ-LBD (Homo sapiens, UniProt P51449)
T1 construct: made in house; host or cells: SF9 cells (baculovirus)
T1 sequence (P51449 269-508 limits assumed): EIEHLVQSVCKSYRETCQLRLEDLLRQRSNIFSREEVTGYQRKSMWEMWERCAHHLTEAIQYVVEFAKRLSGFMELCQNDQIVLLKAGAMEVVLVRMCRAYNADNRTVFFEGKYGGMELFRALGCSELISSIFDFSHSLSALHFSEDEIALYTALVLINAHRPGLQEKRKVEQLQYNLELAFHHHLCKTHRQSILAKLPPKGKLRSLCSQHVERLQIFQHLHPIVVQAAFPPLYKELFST
Test: RORγ-Ligand Binding Domain (LBD) TR-FRET Assay;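 for TR-FRET Assay Max Response: 665/615 nm ratio relative to signal without ursolic acid or compound set at 100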
Type: biochemical
Description: Assay procedures and results are described below.
HIS-tagged RORγ-LBD protein was expressed in SF9 cells using a baculovirus expression system. The lysate was diluted in assay buffer (50 mM Tris pH 7.0, 50 mM KCl, 1 mM EDTA, 0.1 mM DTT, 0.01% BSA) to obtain RORγ-LBD final concentration of ˜3 nM in a 384-well assay plate (need to titrate for each batch of protein).
A stock of biotinylated-LXXLL peptide from coactivator SRC1 (Biotin-[…]) was prepared in assay buffer and added to each well (200 nM final concentration). […] RORγ antagonist ursolic acid was also included at a final concentration of 2 μM. Compounds were diluted in DMSO and further diluted in assay buffer with a final DMSO concentration at 1%.

| Structure (SMILES) | EC50 | TR-FRET Assay Max Response |
| --- | --- | --- |
| Cn1cc(C(=O)NC[C@H]2CN(S(=O)(=O)c3cccc(C(F)(F)F)c3)c3cc(-c4cc(F)cc(OC(F)F)c4)ccc3O2)c(C(F)(F)F)n1 [Compound 30CZ, (S)-N-((6-(3-(difluoromethoxy)-5-fluorophenyl)-4-((3-(trifluoro-methyl)phenyl)sulfonyl)-3,4-dihydro-2H-benzo[b][1,4]-oxazin-2-yl)methyl)-1-methyl-3-(trifluoromethyl)-1H-pyrazole-4-carboxamide] | < 500 nM | *** (The symbol “***” indicates a value in the range of greater than 150 to 200) |
| O=C(NC[C@H]1CN(S(=O)(=O)c2cccc(C(F)(F)F)c2)c2cc(-c3cc(F)cc(OC(F)F)c3)ccc2O1)c1ccn[nH]1 [Compound 30DB, (S)-N-((6-(3-(difluoromethoxy)-5-fluorophenyl)-4-((3-(trifluoromethyl)phenyl)sulfonyl)-3,4-dihydro-2H-benzo[b][1,4]oxazin-2-yl)methyl)-1H-pyrazole-5-carboxamide] | < 500 nM | *** (The symbol “***” indicates a value in the range of greater than 150 to 200) |
| CC(C)(C[C@@H]1CN(S(=O)(=O)c2cccc(C(F)(F)F)c2)c2cc(-c3cc(F)ccc3F)ccc2O1)NC(=O)C(C)(C)O [Compound 30DD, (R)-N-(1-(6-(2,5-difluoro-phenyl)-4-((3-(trifluoromethyl)-phenyl)sulfonyl)-3,4-dihydro-2H-benzo[b][1,4]oxazin-2-yl)-2-methylpropan-2-yl)-2-hydroxy-2-methylpropanamide] | < 500 nM | *** (The symbol “***” indicates a value in the range of greater than 150 to 200) |
| CC(C)(C[C@@H]1CN(S(=O)(=O)c2cccc(C(F)(F)F)c2)c2cc(-c3cc(F)ccc3F)ccc2O1)NS(C)(=O)=O [Compound 30DF, (R)-N-(1-(6-(2,5-difluoro-phenyl)-4-((3-(trifluoromethyl)-phenyl)sulfonyl)-3,4-dihydro-2H-benzo[b][1,4]oxazin-2-yl)-2-methylpropan-2-yl)methane-sulfonamide] | < 500 nM | *** (The symbol “***” indicates a value in the range of greater than 150 to 200) |
| CC(C)(C[C@H]1CN(S(=O)(=O)c2cccc(C(F)(F)F)c2)c2cc(-c3cccc(OC(F)F)n3)ccc2O1)C(=O)O [Compound 32AM, (S)-3-(6-(6-(difluoromethoxy)-pyridin-2-yl)-4-((3-(trifluoro-methyl)phenyl)sulfonyl)-3,4-dihydro-2H-benzo[b][1,4]oxazin-2-yl)-2,2-dimethylpropanoic acid] | < 500 nM | * (The symbol “*” indicates a value in the range of 25 to 90) |
| O=C(O)C1(C[C@@H]2CN(S(=O)(=O)c3cccc(C(F)(F)F)c3)c3cc(-c4cc(F)cc(F)c4)ccc3O2)CCC1 [Compound 32AP, (R)-1-((6-(3,5-difluorophenyl)-4-((3-(trifluoromethyl)phenyl)-sulfonyl)-3,4-dihydro-2H-benzo[b][1,4]oxazin-2-yl)methyl)cyclobutane-1-carboxylic acid] | < 500 nM | ** (The symbol “**” indicates a value in the range of greater than 90 to 150) |
| O=C(O)C1(C[C@@H]2CN(S(=O)(=O)c3cccc(C(F)(F)F)c3)c3cc(-c4cc(F)ccc4F)ccc3O2)CCC1 [Compound 32AQ, (R)-1-((6-(2,5-difluorophenyl)-4-((3-(trifluoromethyl)phenyl)-sulfonyl)-3,4-dihydro-2H-benzo[b][1,4]oxazin-2-yl)methyl)cyclobutane-1-carboxylic acid] | 500 to 5000 nM | ** (The symbol “**” indicates a value in the range of greater than 90 to 150) |
| CC(C)(C[C@H]1CN(S(=O)(=O)c2cccc(C(F)(F)F)c2)c2cc(-c3c(F)cccc3C(F)(F)F)ccc2O1)C(=O)O [Compound 32AY, (S)-3-(6-(2-fluoro-6-(trifluoro-methyl)phenyl)-4-((3-(trifluoro-methyl)phenyl)sulfonyl)-3,4-dihydro-2H-benzo[b][1,4]oxazin-2-yl)-2,2-dimethylpropanoic acid] | < 500 nM | ** (The symbol “**” indicates a value in the range of greater than 90 to 150) |
| CC(C)(C[C@H]1CN(S(=O)(=O)c2cccc(C(F)(F)F)c2)c2cc(-c3cc(F)cc(F)c3Cl)ccc2O1)C(=O)O [Compound 32U, (S)-3-(6-(2-chloro-3,5-difluoro-phenyl)-4-((3-(trifluoromethyl)-phenyl)sulfonyl)-3,4-dihydro-2H-benzo[b][1,4]oxazin-2-yl)-2,2-dimethylpropanoic acid] | < 500 nM | *** (The symbol “***” indicates a value in the range of greater than 150 to 200) |
| C[C@H](C[C@H]1CN(S(=O)(=O)c2cccc(C(F)(F)F)c2)c2cc(-c3cc(F)cc(F)c3Cl)cc(F)c2O1)C(=O)O [Compound 46H, (R)-3-((S)-6-(2-chloro-3,5-difluorophenyl)-8-fluoro-4-((3-(trifluoromethyl)phenyl)sulfonyl)-3,4-dihydro-2H-benzo[b][1,4]-oxazin-2-yl)-2-methylpropanoic acid] | < 500 nM | *** (The symbol “***” indicates a value in the range of greater than 150 to 200) |
| C[C@@H](C[C@H]1CN(S(=O)(=O)c2cccc(C(F)(F)F)c2)c2cc(-c3cc(F)cc(F)c3Cl)cc(F)c2O1)C(=O)O [Compound 46I, (S)-3-((S)-6-(2-chloro-3,5-difluorophenyl)-8-fluoro-4-((3-(trifluoromethyl)phenyl)sulfonyl)-3,4-dihydro-2H-benzo[b][1,4]-oxazin-2-yl)-2-methylpropanoic acid] | < 500 nM | *** (The symbol “***” indicates a value in the range of greater than 150 to 200) |
| C[C@H](C[C@H]1CN(S(=O)(=O)c2cccc(C(F)(F)F)c2)c2cc(-c3cc(F)cc(F)c3)ccc2O1)C(=O)O [Compound 46J, (R)-3-((S)-6-(3,5-difluorophenyl)-4-((3-(trifluoromethyl)phenyl)-sulfonyl)-3,4-dihydro-2H-benzo[b][1,4]oxazin-2-yl)-2-methylpropanoic acid] | < 500 nM | *** (The symbol “***” indicates a value in the range of greater than 150 to 200) |
| C[C@H](C[C@H]1CN(S(=O)(=O)c2cccc(C(F)(F)F)c2)c2cc(-c3cccc(C(F)(F)F)c3)ccc2O1)C(=O)O [Compound 46K, (R)-2-methyl-3-((S)-6-(3-(trifluoromethyl)phenyl)-4-((3-(trifluoromethyl)phenyl)sulfonyl)-3,4-dihydro-2H-benzo[b][1,4]-oxazin-2-yl)propanoic acid] | < 500 nM | *** (The symbol “***” indicates a value in the range of greater than 150 to 200) |
| C[C@@H](C[C@H]1CN(S(=O)(=O)c2cccc(C(F)(F)F)c2)c2cc(-c3cccc(C(F)(F)F)c3)ccc2O1)C(=O)O [Compound 46L, (S)-2-methyl-3-((S)-6-(3-(trifluoromethyl)phenyl)-4-((3-(trifluoromethyl)phenyl)sulfonyl)-3,4-dihydro-2H-benzo[b][1,4]-oxazin-2-yl)propanoic acid] | < 500 nM | – |
| C[C@H](C[C@H]1CN(S(=O)(=O)c2cccc(C(F)(F)F)c2)c2cc(-c3cc(F)cc(F)c3Cl)ccc2O1)C(=O)O [Compound 46M, (R)-3-((S)-6-(2-chloro-3,5-difluorophenyl)-4-((3-(trifluoromethyl)phenyl)sulfonyl)-3,4-dihydro-2H-benzo[b][1,4]oxazin-2-yl)-2-methylpropanoic acid] | < 500 nM | *** (The symbol “***” indicates a value in the range of greater than 150 to 200) |
| C[C@H](C[C@H]1CN(S(=O)(=O)c2cccc(C(F)(F)F)c2)c2cc(-c3cc(F)cc(OC(F)F)c3)ccc2O1)C(=O)O [Compound 46O, (R)-3-((S)-6-(3-(difluoro-methoxy)-5-fluorophenyl)-4-((3-(trifluoromethyl)phenyl)sulfonyl)-3,4-dihydro-2H-benzo[b][1,4]-oxazin-2-yl)-2-methylpropanoic acid] | < 500 nM | *** (The symbol “***” indicates a value in the range of greater than 150 to 200) |
| C[C@@H](C[C@H]1CN(S(=O)(=O)c2cccc(C(F)(F)F)c2)c2cc(-c3cc(F)cc(OC(F)F)c3)ccc2O1)C(=O)O [Compound 46P, (S)-3-((S)-6-(3-(difluoro-methoxy)-5-fluorophenyl)-4-((3-(trifluoromethyl)phenyl)sulfonyl)-3,4-dihydro-2H-benzo[b][1,4]-oxazin-2-yl)-2-methylpropanoic acid] | < 500 nM | *** (The symbol “***” indicates a value in the range of greater than 150 to 200) |
| C[C@H](C[C@H]1CN(S(=O)(=O)c2cccc(C(F)(F)F)c2)c2cc(-c3cc(Cl)cc(OC(F)F)c3)ccc2O1)C(=O)O [Compound 46Q, (R)-3-((S)-6-(3-chloro-5-(difluoromethoxy)phenyl)-4-((3-(trifluoromethyl)phenyl)sulfonyl)-3,4-dihydro-2H-benzo[b][1,4]-oxazin-2-yl)-2-methylpropanoic acid] | < 500 nM | *** (The symbol “***” indicates a value in the range of greater than 150 to 200) |
